In publication PMC5462828 (Scientific Reports, 2017):

Test system: ML290-mediated cAMP accumulation
Assay: Effect of signalling pathway inhibitors on ML290-mediated cAMP accumulation in human primary vascular cells
Type: cell-based
Method: cAMP and cGMP accumulation was determined as previously described, [16]. Briefly, HEK293 cells were plated in 96-well plates (5 × 10^4 cells/well) and human primary cells were plated into 24-well plates (1 × 10^5 cells/well) and grown overnight to achieve a confluent monolayer. Prior to stimulation, HEK cells were serum-starved in DMEM containing 0.5% FBS v/v and primary cells were serum-starved in M199 medium for 4–6 hours. […] Levels of cAMP and cGMP were detected according to the manufacturer’s instructions (Perkin-Elmer, Australia).

Q: With CC(C)Oc1ccccc1C(=O)Nc1ccccc1C(=O)Nc1cccc(S(=O)(=O)C(F)(F)F)c1 [ML290, 2-Isopropoxy-N-(2-(3-(trifluoromethylsulfonyl)phenylcarbamoyl)phenyl) benzamide] as the compound, how does the “ML290-mediated cAMP accumulation, ML290 alone” value (HCAECs, ML290 10 μM, 30 min) read?
A: The value was 22.5 ± 5.5 % response to 50 μM forskolin.

Q: And the “ML290-mediated cAMP accumulation, ML290 alone” value (HUASMCs, control of NF449 and mSIRK experiments)?
A: Its value is 18.8 ± 4.3 % response to 50 μM forskolin.

Q: And the “ML290-mediated cAMP accumulation, ML290 alone” value (HUASMCs, control of gallein and Wortmannin experiments)?
A: Its value is 16.7 ± 3.4 % response to 50 μM forskolin.

Q: And the “ML290-mediated cAMP accumulation, ML290 alone” value (HUVECs, ML290 10 μM, 30 min)?
A: Its value is 16.4 ± 2.5 % response to 50 μM forskolin.

Q: And the “ML290-mediated cAMP accumulation, ML290 alone” value (HUVSMCs, control of NF449 and mSIRK experiments)?
A: Its value is 18.8 ± 8.0 % response to 50 μM forskolin.

Q: What about the “ML290-mediated cAMP accumulation, ML290 alone” value (HUVSMCs, control of gallein and Wortmannin experiments) of the same compound?
A: The value was 12.6 ± 2.4 % response to 50 μM forskolin.
